# Reference: patent US20260109707A1, “HETEROBIFUNCTIONAL COMPOUNDS AND METHODS OF TREATING DISEASE” (Halda Therapeutics OpCo. Inc., priority 2022, published 2026)
# Where two headings read alike, the source gives them in different places.
# Columns and labels:
# [1] = system: T-Rex 293 cell line SC3 cells having increased expression of androgen receptor protein due to exposure to doxycycline; experiment: Cellular growth inhibition assay, T-Rex 293 SC3 cells with doxycycline (CellTiter-Glo, 72 hours); assay type: cell-based; conditions: T-Rex 293 SC3 cells with increased androgen receptor expression due to doxycycline (10 ng/mL)
# In short: (§1)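 Growth inhibition is measured in an inducible AR-expressing T-Rex 293 clone, SC3, cultured with or without 10 ng/mL doxycycline in hormone-depleted medium. Test compounds are applied for 72 hours. GI50 values derive from CellTiter-Glo 2.0 signal fitted by four-parameter regression.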
# T47D cells = experiment: Cellular growth inhibition assay for T47D cells (CellTiter-Glo, 72 hours); assay type: cell-based, human; conditions: 72 hours treatment
# Procedure: T47D cells were purchased from American Type Cell Culture (ATCC Cat #HTB-133) and then seeded on poly-D-lysine coated, black clear-bottom 384-well plates at 3000/well in 25 μL Dulbecco's Modified Eagle Medium (DMEM) supplemented with 10% w/w Fetal bovine serum (FBS), 0.2 units/mL recombinant human insulin (Gibco Cat #12585014), and 1% w/w Pen-Strep. Pen-Strep is a commercially available mixture of penicillin G and streptomycin, which is used in mammalian cell culture media to prevent bacterial contamination. Dulbecco's Modified Eagle Medium (DMEM) supplemented with 10% w/w fetal bovine serum (FBS), 0.2 units/mL recombinant human insulin, and 1% w/w Pen-Strep is herein referred to as Treatment Medium. Following seeding of cells in the plates, the plates were spun at 300×g for 30 seconds, then equilibrated to room temperature for 30 minutes, and then deposited in a humidified tissue culture incubator maintained at 37° C. with 5% CO2.
# At 24 hours after seeding of the cells, dilutions of test compound were prepared in DMSO and dissolved in Treatment Medium, to achieve a final DMSO concentration of 0.5% w/w, thereby providing the Test Compound Solution. A 25 μL aliquot of the Test Compound Solution was added to cells in the well plates. An equal volume of a solution containing DMSO and Treatment Medium was used as a negative control. Following treatment of cells with Test Compound Solution or said equal volume of a solution containing DMSO and Treatment Medium, the plates were spun at 300×g for 30 seconds, and then left in an incubator for 72 hours.
# At the end of the treatment duration, cell viability was quantified with CellTiter-Glo 2.0 reagent (Promega Cat #G9243). For this purpose, plates were equilibrated to room temperature for 30 minutes, and then 25 μL of CellTiter-Glo 2.0 reagent was added to cells in the plate wells. Plates were then agitated on a shaker for two minutes at 500 rpm and subsequently incubated at room temperature for 10 minutes. Following incubation, the plates were spun at 3000×g for 30 seconds, then sealed with an optical adhesive cover, and luminescence readings were measured with an EnVision Plate Reader (Perkin Elmer).
# Data was normalized using zero luminescence for baseline. A four-parameter non-linear regression curve fit was applied to dose-response data in GraphPad Prism data analysis software to determine the half-maximal growth inhibitory concentration (GI50) for each test compound.
# VCaP cells = experiment: Cellular growth inhibition assay for VCaP cells (CellTiter-Glo, 72 hours); assay type: cell-based, human
# In short: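 Luminescent viability signal after 72 h of compound exposure gave GI50 values by four-parameter nonlinear regression. Compounds were added in 0.5% DMSO to cells plated 24 h earlier at 5000/well in DMEM containing 10% FBS.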
# [2] = system: T-Rex 293 cell line SC3 cells lacking increased expression of androgen receptor protein; experiment: Cellular growth inhibition assay, T-Rex 293 SC3 cells without doxycycline (CellTiter-Glo, 72 hours); assay type: cell-based; conditions: T-Rex 293 cell line SC3 cells not exposed to doxycycline (lacking increased androgen receptor expression)
# In short: as §1
Compound,"GI50 (T47D cells; Homo sapiens, T47D, 72 h)","GI50 (VCaP cells; Homo sapiens, VCaP, 72 h)",GI50 ([2]; 72 h),also measured
Cc1sc2c(c1C)C(c1ccc(C[C@H]3CCC4CN(c5ccc(C(=O)N[C@H]6CC[C@H](Oc7ccc(C#N)c(Cl)c7)CC6)nn5)CCN4C3)cc1)=N[C@@H](Cc1ncco1)c1nnc(C)n1-2 (some centres unmarked) [I-258],< 500 nM,< 500 nM,–,–
Cc1sc2c(c1C)C(c1ccc(C[C@@H]3CC[C@]4(C3)CN(c3ccc(C(=O)N[C@H]5CC[C@H](Oc6ccc(C#N)c(Cl)c6)CC5)nn3)CCO4)cc1)=N[C@@H](Cc1ncco1)c1nnc(C)n1-2 [I-264],> 3000 nM,1500 to 3000 nM,–,–
Cc1sc2c(c1C)C(c1ccc(C[C@@H]3CC[C@@]4(C3)CN(c3ccc(C(=O)N[C@H]5CC[C@H](Oc6ccc(C#N)c(Cl)c6)CC5)nn3)CCO4)cc1)=N[C@@H](Cc1ncco1)c1nnc(C)n1-2 [I-265],–,–,–,GI50 (T47D cells): > 3000 nM; GI50 (VCaP cells): 1500 to 3000 nM
Cc1sc2c(c1C)C(c1ccc(NCC(=O)N3CCC(c4ccc(C(=O)N[C@H]5CC[C@H](Oc6ccc(C#N)c(Cl)c6)CC5)nn4)CC3)cc1)=N[C@@H](Cc1ncco1)c1nnc(C)n1-2 [I-268],500 to 1500 nM,> 3000 nM,–,–
Cc1sc2c(c1C)C(c1ccc(C(=O)N3CC[C@]4(CCCN(c5ccc(C(=O)N[C@H]6CC[C@H](Oc7ccc(C#N)c(Cl)c7)CC6)nn5)C4)C3)cc1)=N[C@@H](Cc1ncco1)c1nnc(C)n1-2 [I-270],> 3000 nM,500 to 1500 nM,–,–
Cc1sc2c(c1C)C(c1ccc(C(=O)N3CCC[C@@H](Cc4ccc(C(=O)N[C@H]5CC[C@H](Oc6ccc(C#N)c(Cl)c6)CC5)nn4)C3)cc1)=N[C@@H](Cc1ncco1)c1nnc(C)n1-2 [I-274],> 3000 nM,> 3000 nM,–,–
Cc1sc2c(c1C)C(c1ccc(C#CC3CC4(C3)CN(c3ccc(C(=O)N[C@H]5CC[C@H](Oc6ccc(C#N)c(Cl)c6)CC5)nn3)C4)cn1)=N[C@@H](Cc1ncco1)c1nnc(C)n1-2 [I-280],> 3000 nM,< 500 nM,–,–
Cc1sc2c(c1C)C(c1ccc(C#CC3CC4(C3)CN(c3ccc(C(=O)N[C@H]5CC[C@H](Oc6ccc(C#N)c(Cl)c6)CC5)nn3)C4)nc1)=N[C@@H](Cc1ncco1)c1nnc(C)n1-2 [I-282],> 3000 nM,> 3000 nM,–,–
Cc1sc2c(c1C)C(c1ccc(OC[C@H]3C[C@]4(CCCN(c5ccc(C(=O)N[C@H]6CC[C@H](Oc7ccc(C#N)c(Cl)c7)CC6)nn5)C4)C3)cc1)=N[C@@H](C)c1nnc(C)n1-2 [I-309],500 to 1500 nM,–,> 3000 nM,GI50 ([1]; 72 h): < 500 nM
"Cc1sc2c(c1C)C(c1ccc(C3CCC4(CCN(c5ccc(C(=O)N[C@H]6CC[C@H](Oc7ccc(C#N)c(Cl)c7)CC6)nn5)C4)C3)cc1)=N[C@@H](C)c1nnc(C)n1-2 (stereo partly drawn) [I-823, N-[4-(3-chloro-4-cyano-phenoxy)cyclohexyl]-6-[8-[4-[(9S)-4,5,9,13-tetramethyl-3-thia-1,8,11,12-tetrazatricyclo[8.3.0.02,6]trideca-2(6),4,7,10,12-pentaen-7-yl]phenyl]-2-azaspiro[4.4]nonan-2-yl]pyridazine-3-carboxamide]",–,–,–,GI50 [1]: < 500 nM; GI50 (VCaP cells): < 500 nM; GI50 [2]: < 500 nM
"Cc1sc2c(c1C)C(c1ccc(C3CCC4(CC3)CCN(c3ccc(C(=O)N[C@H]5CC[C@H](Oc6ccc(C#N)c(Cl)c6)CC5)nn3)C4)cc1)=N[C@@H](Cc1ncco1)c1nnc(C)n1-2 (stereo partly drawn) [I-824, N-((1r,4r)-4-(3-chloro-4-cyanophenoxy)cyclohexyl)-6-(8-(4-((S)-2,3,9-trimethyl-6-(oxazol-2-ylmethyl)-6H-thieno[3,2-f][1,2,4]triazolo[4,3-a][1,4]diazepin-4-yl)phenyl)-2-azaspiro[4.5]decan-2-yl)pyridazine-3-carboxamide]",–,–,–,GI50 [1]: < 500 nM; GI50 (VCaP cells): < 500 nM; GI50 [2]: < 500 nM
"Cc1sc2c(c1C)C(c1ccc(N3C[C@@H]4CN(c5ccc(C(=O)N[C@H]6CC[C@@H](Oc7ccc(C#N)c(Cl)c7)CC6)nn5)C[C@@H]4C3)cc1)=N[C@@H](Cc1ncco1)c1nnc(C)n1-2 [I-825, 6-[(3aR,6aS)-2-[4-[(9S)-4,5,13-trimethyl-9-(oxazol-2-ylmethyl)-3-thia-1,8,11,12-tetrazatricyclo[8.3.0.02,6]trideca-2(6),4,7,10,12-pentaen-7-yl]phenyl]-1,3,3a,4,6,6a-hexahydropyrrolo[3,4-c]pyrrol-5-yl]-N-[4-(3-chloro-4-cyano-phenoxy)cyclohexyl]pyridazine-3-carboxamide]",–,< 500 nM,< 500 nM,GI50 ([1]; 72 h): < 500 nM
"Cc1sc2c(c1C)C(c1ccc(N3C[C@@]4(C)CN(c5ccc(C(=O)N[C@H]6CC[C@H](Oc7ccc(C#N)c(Cl)c7)CC6)nn5)C[C@@]4(C)C3)cc1)=N[C@@H](Cc1ncco1)c1nnc(C)n1-2 [I-826, 6-[(3aS,6aR)-3a,6a-dimethyl-2-[4-[(9S)-4,5,13-trimethyl-9-(oxazol-2-ylmethyl)-3-thia-1,8,11,12-tetrazatricyclo[8.3.0.02,6]trideca-2(6),4,7,10,12-pentaen-7-yl]phenyl]-1,3,4,6-tetrahydropyrrolo[3,4-c]pyrrol-5-yl]-N-[4-(3-chloro-4-cyano-phenoxy)cyclohexyl]pyridazine-3-carboxamide]",–,< 500 nM,< 500 nM,GI50 ([1]; 72 h): < 500 nM

# Second part, led by results:
"GI50 (T47D cells; Homo sapiens, T47D, 72 h)","GI50 (VCaP cells; Homo sapiens, VCaP, 72 h)",Compound,GI50 ([2]; 72 h),also measured
500 to 1500 nM,< 500 nM,CCNC(=O)C[C@@H]1N=C(c2ccc(N(C)CC3CN(c4ccc(C(=O)N[C@H]5CC[C@H](Oc6ccc(C#N)c(Cl)c6)CC5)nn4)C3)cc2)c2c(sc(C)c2C)-n2c(C)nnc21 [I-30],500 to 1500 nM,GI50 ([1]; 72 h): < 500 nM
500 to 1500 nM,< 500 nM,CCNC(=O)C[C@@H]1N=C(c2ccc(CCC3CN(c4ccc(C(=O)N[C@H]5CC[C@H](Oc6ccc(C#N)c(Cl)c6)CC5)nn4)C3)cc2)c2c(sc(C)c2C)-n2c(C)nnc21 [I-31],500 to 1500 nM,GI50 ([1]; 72 h): < 500 nM
500 to 1500 nM,< 500 nM,CCNC(=O)C[C@@H]1N=C(c2ccc(CN3CC4CN(c5ccc(C(=O)N[C@H]6CC[C@H](Oc7ccc(C#N)c(Cl)c7)CC6)nn5)CC4C3)cc2)c2c(sc(C)c2C)-n2c(C)nnc21 (some centres unmarked) [I-32],1500 to 3000 nM,GI50 ([1]; 72 h): < 500 nM
500 to 1500 nM,< 500 nM,CCNC(=O)C[C@@H]1N=C(c2ccc(CCCC3CCN(c4ccc(C(=O)N[C@H]5CC[C@H](Oc6ccc(C#N)c(Cl)c6)CC5)nn4)CC3)cc2)c2c(sc(C)c2C)-n2c(C)nnc21 [I-33],500 to 1500 nM,–
< 500 nM,< 500 nM,Cc1sc2c(c1C)C(c1ccc(C[C@@H]3CCC4CN(c5ccc(C(=O)N[C@H]6CC[C@H](Oc7ccc(C#N)c(Cl)c7)CC6)nn5)CCN4C3)cc1)=N[C@@H](Cc1ncco1)c1nnc(C)n1-2 (some centres unmarked) [I-259],–,–
1500 to 3000 nM,> 3000 nM,Cc1sc2c(c1C)C(c1ccc(C(=O)N3CC[C@@]4(CCCN(c5ccc(C(=O)N[C@H]6CC[C@H](Oc7ccc(C#N)c(Cl)c7)CC6)nn5)C4)C3)cc1)=N[C@@H](Cc1ncco1)c1nnc(C)n1-2 [I-269],–,–
> 3000 nM,> 3000 nM,Cc1sc2c(c1C)C(c1ccc(C(=O)N3CC[C@@]4(CCCN(c5ccc(C(=O)N[C@H]6CC[C@H](Oc7ccc(C#N)c(Cl)c7)CC6)nn5)C4)C3)cc1)=N[C@H](Cc1ncco1)c1nnc(C)n1-2 [I-271],–,–
500 to 1500 nM,< 500 nM,Cc1sc2c(c1C)C(c1ccc(CN(C)C(=O)CCc3ccc(C(=O)N[C@H]4CC[C@H](Oc5ccc(C#N)c(Cl)c5)CC4)nn3)cc1)=N[C@@H](Cc1ncco1)c1nnc(C)n1-2 [I-273],–,–
< 500 nM,< 500 nM,Cc1sc2c(c1C)C(c1ccc(CC3CCC4CN(c5ccc(C(=O)N[C@H]6CC[C@H](Oc7ccc(C#N)c(Cl)c7)CC6)nn5)CCN4C3)cc1)=N[C@@H](Cc1ncco1)c1nnc(C)n1-2 (some centres unmarked) [I-283],–,–
–,< 500 nM,Cc1sc2c(c1C)C(c1ccc(OC[C@H]3C[C@]4(CCCN(c5ccc(C(=O)N[C@H]6CC[C@H](Oc7ccc(C#N)c(Cl)c7)CC6)nn5)C4)C3)cc1)=N[C@@H](C)c1nnc(C)n1-2 [I-354],–,GI50 (T47D cells): 500 to 1500 nM; GI50 [2]: > 3000 nM
